Experimental data: US10660967B2, “Curcumin conjugates and methods of use thereof” (priority 2016, dated 2020)
Read-outs that look alike come from different tables or passages of the source.

What was measured:
[1] = system: Streptococcus pyogenes ATCC19615; assay: Antimicrobial MIC, agar dilution
[2] = system: A-549 (lung) carcinoma cell line; assay: Anti-tumor properties, MTT; type: cell-based; conditions: Homo sapiens, A549
[3] = system: Pseudomonas aeruginosa ATCC27853; assay: Antimicrobial MIC, agar dilution
[4] = system: Staphylococcus aureus ATCC25923; assay: Antimicrobial MIC, agar dilution
[5] = system: Candida albicans (local isolate); assay: Antimicrobial MIC, agar dilution; conditions: Candida albicans, read-out: Minimum inhibitory concentration (MIC)
gastric mucosa = assay: Ulcerogenic liability (ulcer index); type: in vivo, albino mice; conditions: orally, three successive days, 10 mg/kg indomethacin mol equivalent
In short: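 Albino mice were fasted 18 h before dosing, and controls got saline with a few drops of Tween 80. Gastric mucosa was checked under a 10× lens for lesions and erosions. The ulcer index combines percentage incidence divided by 10, mean ulcers per stomach and mean severity.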

[6] = system: PC3 (prostate) carcinoma cell line; assay: Anti-tumor properties, MTT; type: cell-based; conditions: Homo sapiens
[7] = system: HCT116 (colon) carcinoma cell line; assay: Anti-tumor properties, MTT; type: cell-based; conditions: Homo sapiens, HCT-116; read-out: IC50 (μM) HCT116 (colon)
In short: (§1)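 Cells seeded at 10×10^3 per well for 24 h, then exposed to compound in serum-free medium (final up to 100 μM, 0.5% DMSO vehicle) for 72 h in triplicate. Viability by MTT reduction (4 h, SDS solubilised), absorbance 595 nm/ref 620 nm; IC50 from survival curves.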

[8] = system: MCF7 (breast) carcinoma cell line; assay: Anti-tumor properties, MTT; type: cell-based; conditions: Homo sapiens, MCF7; read-out: IC50 (μM) MCF7 (breast)
In short: as §1

[9] = system: HepG2 (hepatocellular) carcinoma cell line; assay: Anti-tumor properties, MTT; type: cell-based; conditions: Homo sapiens, HepG2; read-out: IC50 (μM) HepG2 (liver)
In short: as §1

[10] = system: Salmonella typhi ATCC19430; assay: Antimicrobial MIC, agar dilution; type: cell-based; conditions: Salmonella enterica, read-out: Minimum inhibitory concentration (MIC)
[11] = system: PHA-stimulated splenocytes; assay: Proliferative response of PHA-stimulated splenocytes (MTT assay); type: cell-based; conditions: PHA 5 μg/ml, 72 hr; compounds at 5 μM (method says 10 μM); ratio of O.D. versus vehicle control
In short: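 Readout was MTT absorbance (570 nm, reference 690 nm) after 72 h culture at 37° C. Splenocytes at 1×10^6 cells/well received test compound (10 μM final) alone or plus PHA 5 μg/ml as T-cell mitogen. Values are OD ratios of compound over vehicle control (stimulation index).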

[12] = system: lipopolysaccharide-stimulated peritoneal macrophages; assay: Production of nitric oxide by lipopolysaccharide-stimulated peritoneal macrophages (Greiss reagent); type: cell-based; design: Potency (%): % inhibition of nitric oxide production relative to lipopolysaccharide-stimulated macrophages: concentration or dose not given beside the values; conditions: LPS-stimulated peritoneal macrophages; for Nitric oxide (nitrite) concentration, μM (average ± SD): 24 h, nitrite by Greiss reagent
In short: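 NO output was quantified as accumulated nitrite, reacting supernatant with Greiss reagent (sulfanilamide/α-naphthylamine) and reading at 532 nm. Beforehand, cells had been incubated 24 h at 37° C. in nitrite-free, 0.1% BSA medium with 0.5–10 ng/ml LPS, with or without catecholamines at […].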

[13] = ATCC19615, 18 h, read-out: Minimum inhibitory concentration (MIC)
[14] = ATCC19615, read-out: Minimum inhibitory concentration (MIC)
[15] = ATCC27853, 18 h, read-out: Minimum inhibitory concentration (MIC)
[16] = ATCC27853, read-out: Minimum inhibitory concentration (MIC)
[17] = ATCC25923, 18 h, read-out: Minimum inhibitory concentration (MIC)
[18] = ATCC25923, read-out: Minimum inhibitory concentration (MIC)

Structure (SMILES)	MIC [1, 13] [µg/mL]	MIC [1, 14] [µM]	IC50 [2] [µM]	MIC [3, 15] [µg/mL]	MIC [3, 16] [µM]	MIC [4, 17] [µg/mL]	MIC [4, 18] [µM]	MIC ([5]; 18 h) [µg/mL]	MIC [5] [µM]	IC50 [6] [µM]	IC50 [7] [µM]	IC50 [8] [µM]	IC50 [9] [µM]	MIC ([10]; 18 h) [µg/mL]	MIC [10] [µM]	Stimulation Index (average ± SD) [11]	Potency (%): % inhibition of nitric oxide production relative to lipopolysaccharide-stimulated macrophages [12] [%]	Nitric oxide (nitrite) concentration, μM (average ± SD) [12] [µM]	also measured
COc1cc(/C=C/C(=O)CC(=O)/C=C/c2ccc(OC(=O)[C@H](CCSC)NC(=O)OC(C)(C)C)c(OC)c2)ccc1OC(=O)[C@H](CCSC)NC(=O)OC(C)(C)C [Boc-L-Met-Cur, ((1E,6E)-3,5-dioxohepta-1,6-diene-1,7-diyl)bis(2-methoxy-4,1-phenylene) (2S,2′S)-bis(2-((tert-butoxycarbonyl)amino)-4-(methylthio)butanoate)]	2	2.41	> 100	1	1.2	2	2.41	1	1.2	> 100	> 100	36.3	> 100	2	2.41	1.37 ± 0.10	40.84	16.16 ± 0.64	% Incidence of ulcer divided by 10 (gastric mucosa): 0; Average of ulcer number (gastric mucosa): 0; Average severity of ulcer (gastric mucosa): 0; Number of animals with ulcer (gastric mucosa; 6 animals per group): 0/6; Ulcer index (gastric mucosa; sum of the three values): 0
COc1cc(/C=C/C(=O)CC(=O)/C=C/c2ccc(OC(=O)CCNC(=O)OC(C)(C)C)c(OC)c2)ccc1OC(=O)CCNC(=O)OC(C)(C)C [Boc-β-Ala-Cur, ((1E,6E)-3,5-dioxohepta-1,6-diene-1,7-diyl)bis(2-methoxy-4,1-phenylene) bis(3-((tert-butoxycarbonyl)amino)propanoate)]	0.25	0.352	> 100	0.25	0.352	0.25	0.352	0.5	0.703	> 100	> 100	13.2	> 100	0.5	0.703	1.70 ± 0.24	32.81	18.35 ± 1.61	
COc1cc(/C=C/C(=O)CC(=O)/C=C/c2ccc(OC(=O)[C@H](C)N)c(OC)c2)ccc1OC(=O)[C@H](C)N.Cl.Cl [HCl-L-Ala-Cur, (2S,2′S)-1,1′-((((1E,6E)-3,5-dioxohepta-1,6-diene-1,7-diyl)bis(2-methoxy-4,1-phenylene))bis(oxy))bis(1-oxopropan-2-aminium) chloride]	0.5	0.857	21.7	0.25	0.428	0.5	0.857	0.5	0.857	31.5	38.8	10.7	33.8	0.5	0.857	1.14 ± 0.18	46.24	14.68 ± 1.20	
COc1cc(/C=C/C(=O)CC(=O)/C=C/c2ccc(OC(=O)[C@@H](N)CCC(N)=O)c(OC)c2)ccc1OC(=O)[C@@H](N)CCC(N)=O.Cl.Cl [HCl-L-Gln-Cur, (2S,2′S)-1,1′-((((1E,6E)-3,5-dioxohepta-1,6-diene-1,7-diyl)bis(2-methoxy-4,1-phenylene))bis(oxy))bis(5-amino-1,5-dioxopentan-2-aminium) chloride]	0.5	0.717	21.1	0.5	0.717	0.25	0.358	0.125	0.179	34.4	41	9.15	39.1	0.125	0.179	2.22 ± 0.20	20.35	21.75 ± 1.31	
CC[C@H](C)[C@H](N)C(=O)Oc1ccc(/C=C/C(=O)CC(=O)/C=C/c2ccc(OC(=O)[C@@H](N)[C@@H](C)CC)c(OC)c2)cc1OC.Cl.Cl [HCl-L-Ile-Cur, (2S,2′S,3S,3′S)-1,1′-((((1E,6E)-3,5-dioxohepta-1,6-diene-1,7-diyl)bis(2-methoxy-4,1-phenylene))bis(oxy))bis(3-methyl-1-oxopentan-2-aminium) chloride]	0.5	0.749	20.9	0.25	0.374	0.25	0.374	0.125	0.187	34.4	36.7	10.2	38.9	0.125	0.187	1.59 ± 0.17	35.45	17.63 ± 1.14	
COc1cc(/C=C/C(=O)CC(=O)/C=C/c2ccc(OC(=O)[C@@H](N)Cc3ccccc3)c(OC)c2)ccc1OC(=O)[C@@H](N)Cc1ccccc1.Cl.Cl [HCl-L-Phe-Cur, (2S,2′S)-1,1′-((((1E,6E)-3,5-dioxohepta-1,6-diene-1,7-diyl)bis(2-methoxy-4,1-phenylene))bis(oxy))bis(1-oxo-3-phenylpropan-2-aminium) chloride]	0.5	0.68	33.5	0.5	0.68	0.25	0.34	0.5	0.68	74.4	65.6	11.5	56.2	0.125	0.17	1.41 ± 0.31	39.74	16.46 ± 2.05	
COc1cc(/C=C/C(=O)CC(=O)/C=C/c2ccc(OC(=O)[C@@H](N)C(C)C)c(OC)c2)ccc1OC(=O)[C@@H](N)C(C)C.Cl.Cl [HCl-L-Val-Cur, (2S,2′S)-1,1′-((((1E,6E)-3,5-dioxohepta-1,6-diene-1,7-diyl)bis(2-methoxy-4,1-phenylene))bis(oxy))bis(3-methyl-1-oxobutan-2-aminium) chloride]	0.125	0.195	20.4	0.25	0.391	0.25	0.391	0.125	0.195	34.6	66.5	10.4	39.1	0.125	0.195	2.05 ± 0.15	24.37	20.65 ± 0.99	
